In the NIST ThermoML archive (doi:10.1016/j.fluid.2007.07.066):

Assay: mn = molality of the nth substance listed, in mol/kg
Conditions: 101 kPa, Liquid; for speed of sound: Sing-around technique in a fixed-path interferometer; for molar conductivity: dip type immersion conductance cell

O=P([O-])([O-])O.[Na+].[Na+] [disodium hydrogen phosphate] + O
Conditions	mass density [kg/m3]	molar conductivity [S·m2/mol]	speed of sound [m/s]
293.15 K, m1 = 0.1066	1012.65	–	–
293.15 K, m1 = 0.181	1022.47	–	–
293.15 K, m1 = 0.2454	1030.81	–	–
293.15 K, m1 = 0.2498	1031.37	–	–
293.15 K, m1 = 0.2939	1037.06	–	–
293.15 K, m1 = 0.3192	1040.28	–	–
293.15 K, m1 = 0.3723	1046.93	–	–
293.15 K, m1 = 0.4483	1056.39	–	–
293.15 K, m1 = 0.6185	1077.21	–	–
293.15 K, m1 = 0.7841	1096.81	–	–
298.15 K, m1 = 0.0049	–	0.01921	–
298.15 K, m1 = 0.007	998.012	–	1498
298.15 K, m1 = 0.0104	998.476	0.01802	1498.7
298.15 K, m1 = 0.0141	998.988	–	1499.3
298.15 K, m1 = 0.0154	–	0.01735	–
298.15 K, m1 = 0.0211	–	0.0167	–
298.15 K, m1 = 0.032	1001.4	–	1502.5
298.15 K, m1 = 0.0386	1002.28	–	1503.7
298.15 K, m1 = 0.0411	1002.63	–	1504.1
298.15 K, m1 = 0.0413	–	0.01534	–
298.15 K, m1 = 0.0496	1003.78	–	1505.6
298.15 K, m1 = 0.0632	1005.6	–	1508
298.15 K, m1 = 0.0712	–	0.014	–
298.15 K, m1 = 0.0737	1007	–	1509.8
298.15 K, m1 = 0.1066	1011.35	0.01306	1515.3
298.15 K, m1 = 0.1437	–	0.01234	–
298.15 K, m1 = 0.181	1021.07	–	1527.7
298.15 K, m1 = 0.1927	–	0.0116	–
298.15 K, m1 = 0.2454	1029.34	–	1538
298.15 K, m1 = 0.2475	–	0.011	–
298.15 K, m1 = 0.2498	1029.9	–	1538.6
298.15 K, m1 = 0.2939	1035.53	–	1545.8
298.15 K, m1 = 0.3192	1038.73	–	1549.8
298.15 K, m1 = 0.3697	–	0.00986	–
298.15 K, m1 = 0.3723	1045.32	–	1558
298.15 K, m1 = 0.4438	–	0.009224	–
298.15 K, m1 = 0.4483	1054.71	–	1569.7
298.15 K, m1 = 0.5295	–	0.008621	–
298.15 K, m1 = 0.6125	–	0.00816	–
298.15 K, m1 = 0.6185	1075.38	–	1595.4
298.15 K, m1 = 0.6768	–	0.00778	–
298.15 K, m1 = 0.7479	–	0.007445	–
298.15 K, m1 = 0.7841	1094.86	–	1619.8
298.15 K, m1 = 0.8346	–	0.00706	–
298.15 K, m1 = 0.9695	–	0.006536	–
303.15 K, m1 = 0.007	996.606	–	1510.4
303.15 K, m1 = 0.0104	997.065	–	1511
303.15 K, m1 = 0.0141	997.573	–	1511.7
303.15 K, m1 = 0.032	999.963	–	1514.7
303.15 K, m1 = 0.0386	1000.84	–	1515.9
303.15 K, m1 = 0.0411	1001.18	–	1516.3
303.15 K, m1 = 0.0496	1002.33	–	1517.8
303.15 K, m1 = 0.0632	1004.12	–	1520.1
303.15 K, m1 = 0.0737	1005.51	–	1521.8
303.15 K, m1 = 0.1066	1009.83	–	1527.2
303.15 K, m1 = 0.181	1019.47	–	1539.2
303.15 K, m1 = 0.2454	1027.67	–	1549.2
303.15 K, m1 = 0.2498	1028.22	–	1549.9
303.15 K, m1 = 0.2939	1033.82	–	1556.8
303.15 K, m1 = 0.3192	1036.99	–	1560.7
303.15 K, m1 = 0.3723	1043.54	–	1568.7
303.15 K, m1 = 0.4483	1052.87	–	1580.1
303.15 K, m1 = 0.6185	1073.41	–	1605.1
303.15 K, m1 = 0.7841	1092.78	–	1628.8
